The subject of series [1] is fR2 cells. In words: MTT cell viability assay, fR2 normal breast epithelial cells. Format: cell-based, human. The conditions noted are these: 48 h, read-out: Cytotoxicity IC50, fR2. Here is the method: (§1) The cell viability assay was performed according to the procedure previously described with minor modifications. Briefly, MCF7, HCT-116 and fR2 cells were plated in 96 well plates at a density of 5 × 10^3 cells per well and incubated overnight. […] MTT dye solution (2.5 mg/mL) was introduced to the cells in medium 4 h before the completion of the treatment period and the formed formazan crystals were solubilized with DMSO. Optical density was measured with the help of a UV-visible spectrophotometer coupled with microplate reader (TECAN, Infinite M200 Pro), the percent inhibition was calculated and IC50 values were determined with the help of GraphPad Prism software (GraphPad software Inc. CA, USA).
(§2) Data were expressed as the mean ± standard deviation of three independent experiments performed and analyzed by Student’s t-test. IC50 values were determined with the help of GraphPad Prism software Version 5.0 (GraphPad Software, Inc., USA) by taking the log of inhibitor vs. response. A 2-sided value of *P < 0.05 was considered significant in all cases.

Series [2] deals with MCF7 cells. In words: MTT cell viability assay, MCF7. To be noted: read-out: Cytotoxicity IC50, MCF7. The class given is cell-based, human. How it is done: as §1, §2
Series [3] concerns HCT-116 cells. The series can be described thus: MTT cell viability assay, HCT-116. The conditions noted are these: read-out: Cytotoxicity IC50, HCT-116. Format: cell-based, human. How it is done:
as §1, §2
Background: Tetrazolium dyes change colour on reduction, which living cells bring about.

Series [4] has as its system HCT-116 cells. The series can be described thus: SA-β-gal activity assay, HCT-116. The class given is cell-based, human. The conditions noted are these: HCT-116, five days; doxorubicin 100 nM, WA 2–3 µM. Here is the method: (§3) The procedure was followed as described previously with some modifications. Briefly, MCF7 and HCT-116 cells (0.4 × 10^6 per well) were seeded in six-well plates and treated with indicated concentrations of W-2b along with WA, vehicle and positive control doxorubicin for five days. Cells were accordingly washed twice with PBS, fixed with 4% paraformaldehyde for 5 min, rinsed twice with PBS and incubated with freshly prepared staining solution (40 mM citric acid/Na phosphate buffer, 5 mM K4[Fe(CN)6] 3H2O, 5 mM K3[Fe(CN)6], 150 mM sodium chloride, 2 mM magnesium chloride and 1 mg/ml X-gal in distilled water, pH 6.0) for 48 h at 37 °C. Stained cells were thoroughly washed and air dried in dark. Cells were then observed under bright field microscope (NIKON) for the SA-β-gal positive cells and images were captured at 20x magnification.

For series [5], the system named is MCF7 cells. In words: SA-β-gal activity assay, MCF7. The class given is cell-based, human. The conditions noted are these: MCF7, five days; doxorubicin 100 nM, WA 2–3 µM. How it is done: as §3
Series [6] in a line: MTT cell viability assay, fR2 normal breast epithelial cells. The class given is cell-based, human. To be noted: human, fR2 normal breast epithelial cells, read-out: Cytotoxicity IC50, fR2. Here is the method:
as §1, §2

In series [7] the test system is 4T1 mouse mammary carcinoma. The series can be described thus: In vivo tumor growth, 4T1 mouse mammary carcinoma model. To be noted: 25 mg/kg b.w. intraperitoneal, each alternate day for two weeks. How it is done:
The experiment was performed according to the pre-standardized protocol with minor modifications. To evaluate the in vivo anti-tumor efficacy of W-2b, healthy female Balb/c mice (25–30 g) were taken. Animals were randomized into three groups, and six animals were taken per group. For the tumor cells implantation, mouse mammary carcinoma 4T1 cells (1 × 10^6 per 200 μL) diluted in serum-free RPMI medium were injected subcutaneously into the mammary pad of each mouse around the second right mammary gland. A week after tumor cell implantation, when the palpable mammary tumors develop, mice were injected intraperitoneally with either vehicle (normal saline) or 5-FU (25 mg/kg/b.w.) or W-2b (25 mg/kg/b.w.) in each alternative day for two weeks. Tumor sizes were measured in each alternate day after tumor cell injection, and the body weight was recorded once in a week. Mice were sacrificed on the 15th day after treatment initiation, and tumors were dissected out carefully from the mammary pad area.

[8] abbreviates: Homo sapiens, HCT-116, 48 h, 48 h.

The values that follow come from publication PMC5653814, “Regiospecific Synthesis of Ring A Fused Withaferin A Isoxazoline Analogues: Induction of Premature Senescence by W-2b in Proliferating Cancer Cells” (Scientific Reports, 2017).

Like-named read-outs stand apart in the source and are kept apart here.

Broadly, the IC50 is the concentration at which inhibition is half-maximal.

Turning to `CC1=C(CO)C(=O)OC(C(C)C2CCC3C4CC5OC56C(O)C5ON=C(c7ccc(F)cc7)C5C(=O)C6(C)C4CCC23C)C1` (stereo not drawn) [W-4a, 4-fluorophenyl-2-isoxazoline withaferin A], the figures for the IC50 in series [1], in series [2] (48 h) and in series [3] (48 h) were greater than 100 µM, greater than 100 µM and 19.6 ± 1.81 µM, respectively.
Take `COc1cccc2c1C(=O)c1c(O)c3c(c(O)c1C2=O)C[C@@](O)(C(=O)CO)C[C@@H]3O[C@H]1C[C@H](N)[C@H](O)[C@H](C)O1` [doxorubicin]: the “SA-β-gal staining, senescent cells (in words)” value in series [4] and in series [5] was “substantial increase in the number of cells with distinct senescence phenotype” each time.
As to `CC1=C(CO)C(=O)OC(C(C)C2CCC3C4CC5OC56C(O)C5ON=C(c7ccc(Cl)cc7Cl)C5C(=O)C6(C)C4CCC23C)C1` (stereo not drawn) [W-6a], the half-inhibitory concentration (IC50) at 48 h in series [6] was greater than 100 µM. In addition, the IC50 in series [2] (48 h) is 2.28 ± 0.265 µM; in series [3] (48 h) it was greater than 100 µM.
Regarding `COc1ccc(Br)cc1C1=NOC2C1C(=O)C1(C)C3CCC4(C)C(C(C)C5CC(C)=C(CO)C(=O)O5)CCC4C3CC3OC31C2O` (stereo not drawn) [W-7a, 3-bromo-6-methoxyphenyl-2-isoxazoline withaferin A], the IC50 at 48 h in series [6] is greater than 100 µM. Moreover, the IC50 in series [2] (Homo sapiens, MCF7, 48 h, 48 h) was 70.6 ± 5.18 µM; in series [3] (setting [8]), 8.1 ± 1.66 µM.
For the molecule `CC1=C(CO)C(=O)O[C@@H]([C@@H](C)[C@H]2CC[C@H]3[C@@H]4C[C@H]5O[C@]56[C@@H](O)C=CC(=O)[C@]6(C)[C@H]4CC[C@]23C)C1` [WA, Withaferin A], the “SA-β-gal staining, senescent cells (in words)” value in series [4] and in series [5] was “very less number of senescent cells” throughout. For the same molecule, in series [6] (24 h), the 50% inhibitory concentration (IC50) at 24 h amounted to 51.1 ± 5.18 µM. The IC50 at 48 h in series [6] came out at 43.3 ± 3.77 µM. In series [6] (72 h), the concentration for half-maximal inhibition (IC50) at 72 h was 38.3 ± 5.22 µM. Also, the half-inhibitory concentration (IC50) in series [2] (Homo sapiens, MCF7, 24 h, 24 h) was found to be 9.18 ± 1.36 µM; in series [2] (Homo sapiens, MCF7, 48 h, 48 h), 1.75 ± 0.376 µM; in series [2] (Homo sapiens, MCF7, 72 h, 72 h), 1.46 ± 0.291 µM; in series [3] (Homo sapiens, HCT-116, 24 h, 24 h), 4.38 ± 1.67 µM; in series [3] (setting [8]), 2.58 ± 0.415 µM; in series [3] (Homo sapiens, HCT-116, 72 h, 72 h), 2.13 ± 0.55 µM.
`CC1=C(CO)C(=O)OC(C(C)C2CCC3C4CC5OC56C(O)C5ON=C(c7c(Cl)cccc7Cl)C5C(=O)C6(C)C4CCC23C)C1` (stereo not drawn) [W-10a, 2,6-dichlorophenyl-2-isoxazoline withaferin A]: in series [6], the IC50 at 48 h is 98.1 ± 7.18 µM. In addition, the IC50 was 58.3 ± 3.24 µM in series [2] (Homo sapiens, MCF7, 48 h, 48 h) and 5.28 ± 0.561 µM in series [3] (setting [8]).
Regarding `CC1=C(CO)C(=O)OC(C(C)C2CCC3C4CC5OC56C(O)C5ON=C(c7ccc([N+](=O)[O-])cc7)C5C(=O)C6(C)C4CCC23C)C1` (stereo not drawn) [W-2a, 4-nitrophenyl-2-isoxazoline withaferin A], the 50% inhibitory concentration (IC50) at 48 h in series [6] amounted to 52.1 ± 6.6 µM. Besides, the figures for the IC50 in series [2] (48 h) and in series [3] (48 h) were 5.82 ± 0.418 µM and 8.2 ± 0.211 µM, respectively.
As to `CC1=C(CO)C(=O)OC(C(C)C2CCC3C4CC5OC56C(O)C5ON=C(c7ccc(F)cc7)C5C(=O)C6(C)C4CCC23C)C1` (stereo not drawn) [W-4b, 4-fluorophenyl-2-isoxazoline withaferin A], in series [6], the IC50 at 48 h is greater than 100 µM. Further, the IC50 in series [2] (Homo sapiens, MCF7, 48 h, 48 h) was greater than 100 µM; in series [3] (48 h) it was greater than 100 µM.
With `CC1=C(CO)C(=O)OC(C(C)C2CCC3C4CC5OC56C(O)C5ON=C(c7ccncc7)C5C(=O)C6(C)C4CCC23C)C1` (stereo not drawn) [W-5a, pyridenyl-2-isoxazoline withaferin A], in series [6], the IC50 at 48 h is greater than 100 µM. Further, the IC50 was 3.52 ± 0.185 µM in series [2] (48 h) and 63.8 ± 5.43 µM in series [3] (setting [8]).
In the case of `CC1=C(CO)C(=O)O[C@@H]([C@@H](C)C2CCC3C4C[C@H]5O[C@]56[C@@H](O)[C@@H]5ON=C(c7ccc(Cl)cc7)[C@@H]5C(=O)[C@]6(C)C4CC[C@@]32C)C1` (stereo partly drawn) [W-1b, 4-chlorophenyl-2-isoxazoline withaferin A], the IC50 at 48 h in series [6] stood at 39.2 ± 3.81 µM. In addition, the IC50 in series [2] (Homo sapiens, MCF7, 48 h, 48 h) was 1.64 ± 0.267 µM; in series [3] (setting [8]), 16.2 ± 0.676 µM.
As for `CC1=C(CO)C(=O)OC(C(C)C2CCC3C4CC5OC56C(O)C5ON=C(c7ccc(C(F)(F)F)cc7)C5C(=O)C6(C)C4CCC23C)C1` (stereo not drawn) [W-11a, 4-trifluorophenyl-2-isoxazoline withaferin A], the IC50 at 48 h in series [6] is greater than 100 µM. Also, the IC50 in series [2] (Homo sapiens, MCF7, 48 h, 48 h) was greater than 100 µM; in series [3] (48 h), 24.5 ± 2.55 µM.
On to `CC1=C(CO)C(=O)OC(C(C)C2CCC3C4CC5OC56C(O)C5ON=C(c7ccc(Br)cc7)C5C(=O)C6(C)C4CCC23C)C1` (stereo not drawn) [W-3a, 4-bromophenyl-2-isoxazoline withaferin A], for which the 50% inhibitory concentration (IC50) at 48 h in series [6] is greater than 100 µM. The IC50 came out at 95.5 ± 5.41 µM in series [2] (48 h) and 45.8 ± 2.34 µM in series [3] (48 h).
For `COc1cc(C(F)(F)F)ccc1C1=NOC2C1C(=O)C1(C)C3CCC4(C)C(C(C)C5CC(C)=C(CO)C(=O)O5)CCC4C3CC3OC31C2O` (stereo not drawn) [W-9b, 2-methoxy-4-trifluorophenyl-2-isoxazoline withaferin A], the IC50 at 48 h in series [6] was 66.2 ± 7.63 µM. Moreover, the IC50 in series [2] (Homo sapiens, MCF7, 48 h, 48 h) was greater than 100 µM; in series [3] (setting [8]) it was 15.8 ± 3.31 µM.
For `CC1=C(CO)C(=O)OC(C(C)C2CCC3C4CC5OC56C(O)C5ON=C(c7ccncc7)C5C(=O)C6(C)C4CCC23C)C1` (stereo not drawn) [W-5b, pyridenyl-2-isoxazoline withaferin A], the figures for the IC50 in series [1], in series [2] (48 h) and in series [3] (48 h) were 91.2 ± 7.33 µM, 9.7 ± 0.55 µM and 42.4 ± 3.19 µM, respectively.
As for `O=c1[nH]cc(F)c(=O)[nH]1` [5-FU, 5-fluorouracil, reference compound], in series [7] (Balb/c mice), the “Inhibition in tumor volume” value amounted to 78.4%. The “Inhibition in tumor weight” value in series [7] (vs normal saline group) turned out to be 86.7%.
Consider `CC1=C(CO)C(=O)OC(C(C)C2CCC3C4CC5OC56C(O)C5ON=C(c7ccc(Br)cc7)C5C(=O)C6(C)C4CCC23C)C1` (stereo not drawn) [W-3b, 4-bromophenyl-2-isoxazoline withaferin A], for which the IC50 in series [1] is 85.3 ± 9.5 µM; in series [2] (48 h), 1.82 ± 0.33 µM; in series [3] (48 h), 15.9 ± 1.67 µM.
As to `CC1=C(CO)C(=O)O[C@@H]([C@@H](C)C2CCC3C4C[C@H]5O[C@]56[C@@H](O)[C@H]5ON=C(c7ccc(Cl)cc7)[C@H]5C(=O)[C@]6(C)C4CC[C@@]32C)C1` (stereo partly drawn) [W-1a, 4-chlorophenyl-2-isoxazoline withaferin A], in series [6], the IC50 at 48 h is 45.8 ± 5.19 µM. The IC50 amounted to 3.8 ± 0.378 µM in series [2] (Homo sapiens, MCF7, 48 h, 48 h) and 5.62 ± 0.412 µM in series [3] (setting [8]).
For `CC(=O)OCC1=C(C)C[C@H]([C@@H](C)C2CCC3C4C[C@H]5O[C@]56[C@@H](OC(C)=O)[C@@H]5ON=C(c7ccc(F)cc7)[C@@H]5C(=O)[C@]6(C)C4CC[C@@]32C)OC1=O` (stereo partly drawn) [W-12b, 4-fluorophenyl-2-isoxazoline 4,27-acetylwithaferin A] the same measures were 75.6 ± 4.82 µM, 26.9 ± 2.22 µM and 5.29 ± 0.151 µM.
In the case of `CC1=C(CO)C(=O)OC(C(C)C2CCC3C4CC5OC56C(O)C5ON=C(c7ccccc7C(F)(F)F)C5C(=O)C6(C)C4CCC23C)C1` (stereo not drawn) [W-8a, 2-trifluoromethylphenyl-2-isoxazoline withaferin A], the 50% inhibitory concentration (IC50) at 48 h in series [6] amounted to 28.2 ± 4.21 µM. Also, the IC50 was found to be 17.6 ± 1.68 µM in series [2] (Homo sapiens, MCF7, 48 h, 48 h) and 7.5 ± 1.13 µM in series [3] (setting [8]).
On to `CC1=C(CO)C(=O)OC(C(C)C2CCC3C4CC5OC56C(O)C5ON=C(c7ccc(C(F)(F)F)cc7)C5C(=O)C6(C)C4CCC23C)C1` (stereo not drawn) [W-11b, 4-trifluorophenyl-2-isoxazoline withaferin A], for which the IC50 is greater than 100 µM in series [1], 83.3 ± 6.51 µM in series [2] (48 h) and 4.16 ± 0.344 µM in series [3] (48 h).
